System: P. aphanidermatum cytochrome b gene F129 and L129 alleles
Experiment: ARMS/Scorpion F129L SNP detection assay (Ct of allele selective primers on plasmid DNA templates)
Parameters: species or system Pythium aphanidermatum
Details: for ΔCt: between C and A plasmid template; for ΔCt / A Ct / C Ct: 2×10^6 molecules/ul; for A Ct: mutant (L129) plasmid template; for NTC amplification: no template (water only) control; for C Ct: wild type (F129) plasmid template; for Observed A:C ratio: plasmid templates 2×10^6 molecules/ul
Description: In all ARMS/Scorpion™ F129L SNP detection assays AmpliTaq Gold enzyme (Applied Biosystems) was included in the reaction mixes at 1 unit/25 μl reaction. The reaction mix also contained 1× buffer (10 mM Tris-HCl (pH8.3), 50 mM KCl, 3.5 mM MgCl2, 0.01% gelatine) and 100 μM dNTPs (Amersham Pharmacia Biotech). Amplifications were performed in an ABI Prism 7700 instrument for continuous fluorescence monitoring. A preliminary cycle of 95° C. for 10 minutes was performed followed by 50 cycles of 95° C. for 15 sec and 60° C. for 45 sec. Fluorescence was monitored during the annealing/extension stage throughout all cycles.
Primers were first validated for use in such analyses by using plasmid DNA, at various concentrations, as template. This was performed in order to check the specificity and sensitivity of the primer designs. Partial wild type cytochrome b gene sequence and the corresponding tract containing the F129L mutation amplified from two P. aphanidermatum isolates were cloned into the TA pCR2.1 vector (Invitrogen) as described previously in example 2. 150 ul of the bacterial culture, from the 10 transformants from each cloning event picked for Wizard Plus plasmid DNA Preparations (Promega) (see example 2), was saved prior to carrying out these preparations and stored at 4° C. Following sequence analysis wild type and mutant plasmid DNA samples that contained no sequence differences from the consensus sequence were noted. The bacterial culture from which these wild type and mutant plasmid DNA sequences originated was picked for plasmid DNA maxipreps (Qiagen) following the manufacturers protocol. The resulting plasmid DNA was quantified and diluted to a concentration of 1 ug/ul (2×10^11 molecules/ul) using sterile double distilled H2O.
The wild type and mutant plasmid DNA cassettes were diluted further to a concentration of 10 pg/ul (or 2×10^6 molecules/ul) in double distilled H2O and used as template to validate the specificity of the ARMS primers. Each ARMS primer was tested on wild type and mutant template as well as a no template (water only) control, under the PCR conditions described above. The Pt129-1 and Pt129-4 primers were preferred to the Pt129-2 and Pt129-3 and the Pt129-5 and Pt129-6 primers as duplicate PCRs gave more consistent results and were more specific. Wild type ARMS primer Pt129-1 gave a window of 15.27 cycles before amplification occurred on the inappropriate (mutant) template (FIG. 7). Mutant ARMS primer Pt129-4 gave a window of 16.96 cycles before amplification occurred on the inappropriate (wild type) template (FIG. 8).
Following the selection of a suitable ARMS primer for the detection of the point mutation the assay was validated further, so that its sensitivity of detection was fully understood before it was used to test biological samples for the presence of the L129 mutation. The first validation step was to establish if the window of specificity varied for the chosen ARMS primers over a 6 orders of magnitude range of wild type and mutant template DNA concentration. The wild type and mutant plasmid DNA cassettes described previously were diluted in Bovine Serum Albumin (BSA) (Fraction V Powder minimum 96%, Sigma A9647) at a concentration of 1 mg/ml through a 10 fold dilution series. The template concentrations covered the range 2×10^8 molecules/ul to 2×10^2 molecules/ul. Both plasmid DNA cassettes and a no template (water only) control were tested in the ARMS/Scorpion assay using primers Pt129-1, Pt129-4 and Pt129-S, as described above.
In all ARMS/Scorpion™ F129L SNP detection assays AmpliTaq Gold enzyme (Perkin-Elmer/ABI) was included in the reaction mixes at 1 unit/25 μl reaction. The reaction mix also contained 1× buffer (10 mM Tris-HCl (pH8.3), 50 mM KCl, 3.5 mM MgCl2, 0.01% gelatine) and 100 μM dNTPs (Amersham Pharmacia Biotech). Amplifications were performed in an ABI Prism 7700 instrument for continuous fluorescence monitoring. […]

Row | Substance | ΔCt | A Ct | NTC amplification | C Ct | Observed A:C ratio
1 | Pt129-A4 (DNA ACCCCAAGGTAATACATAACCCTTT; chemistry not given here) | 14.38 | 24.42 | none | 38.8 | –
2 | Pt129-A8 (DNA ACCCCAAGGTAATACATAACACACT; chemistry not given here) | 13.76 | 35.87 | none | 22.11 | –
3 | Pt129-A11 (DNA ACCCCAAGGTAATACATAACACCTT; chemistry not given here) | 6.4 | 31.25 | none | 24.85 | –
4 | Pt129-A7 (DNA ACCCCAAGGTAATACATAACTCACT; chemistry not given here) | 14.05 | 36.33 | none | 22.28 | –
5 | Pt129-A6 (DNA ACCCCAAGGTAATACATAACCCGTT; chemistry not given here) | 12.17 | 21.3 | none | 33.47 | –
6 | Pt129-A1 (DNA ACCCCAAGGTAATACATAACCCAAT; chemistry not given here) | 5.79 | 26.54 | none | 32.33 | –
7 | Pt129-C3 (DNA ACCCCAAGGTAATACATAACCCAGG; chemistry not given here) | – | no A | none | 29.7 | all C
8 | Pt129-A2 (DNA ACCCCAAGGTAATACATAACCCACT; chemistry not given here) | 13.14 | 20.87 | none | 34.01 | –
9 | Pt129-C6 (DNA ACCCCAAGGTAATACATAACCCGTG; chemistry not given here) | 24.54 | 44.17 | none | 19.63 | –
10 | Pt129-A5 (DNA ACCCCAAGGTAATACATAACCCCTT; chemistry not given here) | 11.09 | 21.42 | none | 32.51 | –
11 | Pt129-A3 (DNA ACCCCAAGGTAATACATAACCCAGT; chemistry not given here) | 8.91 | 31.29 | none | 40.2 | –
12 | Pt129-C2 (DNA ACCCCAAGGTAATACATAACCCACG; chemistry not given here) | 23.15 | 43.57 | none | 20.42 | –
13 | Pt129-A10 (DNA ACCCCAAGGTAATACATAACTCCTT; chemistry not given here) | 4.2 | 31.4 | none | 27.2 | –
14 | Pt129-A13 (DNA ACCCCAAGGTAATACATAACTCGTT; chemistry not given here) | 18.8 | 41.99 | none | 23.19 | –
15 | Pt129-A12 (DNA ACCCCAAGGTAATACATAACGCCTT; chemistry not given here) | 2.7 | 30.16 | none | 27.46 | –
16 | Pt129-C1 (DNA ACCCCAAGGTAATACATAACCCAAG; chemistry not given here) | 16.81 | 42.6 | none | 25.79 | –
17 | Pt129-S6 (DNA TTGACCCCAAGGTAATACATAACTC; chemistry not given here) | – | 20.84 | none | 20.43 | –
18 | Pt129-A9 (DNA ACCCCAAGGTAATACATAACGCACT; chemistry not given here) | 14.96 | 37.1 | none | 22.14 | –
19 | Pt129-C5 (DNA ACCCCAAGGTAATACATAACCCCTG; chemistry not given here) | 22.26 | 42.36 | none | 20.1 | –
20 | Pt129-A15 (DNA ACCCCAAGGTAATACATAACGCGTT; chemistry not given here) | – | no C | none | 30.05 | all A
